Test results as given in patent US20240393292A1, “ALLERGY ANTIGEN AND EPITOPE THEREOF” (HOYU CO., LTD., priority 2019, published 2024).

test system: IgE antibody present in the serum of a wheat-allergic patient; assay: Wheat epitope mapping (1): peptide array of overlapping 15-amino-acid peptides, chemiluminescence; assay type: binding, human; details: bound = chemiluminescence value minus N2nd value of 5 non-wheat-allergic subjects at least 35,000; serum of 49 patients
Method: Epitope mapping was carried out using a library of overlapping peptides (length: 15 amino acids) corresponding to the amino acid sequences identified as allergy components of wheat. Specifically, the library of overlapping peptides was prepared on the basis of the amino acid sequences of SEQ ID NOs: 2, 4, 6, 8, 10, 12, 14, 16, 18, 20, 22, 24, 26 and 28.
The peptides to be synthesized were shifted by 10 amino acids.
For preparation of peptide arrays, the Intavis CelluSpots™ technique was used. Specifically, the peptide arrays were prepared by the following procedure: (1) synthesizing peptides of interest on amino-modified cellulose disks using an automated chemical synthesis apparatus (Intavis MultiPep RS), (2) dissolving the amino-modified cellulose disks to obtain a cellulose-bound peptide solution, and (3) spotting the cellulose-bound peptides onto coated glass slides. The details of each procedure are as described below.
Peptide synthesis was carried out in incremental steps through 9-fluorenylmethoxycarbonyl (Fmoc) chemical reaction on amino-modified cellulose disks in 384-well synthesis plates. Specifically, amino acids in which a Fmoc group is bonded to an amino group were activated in a solution of N,N′-diisopropylcarbodiimide (DIC) and 1-hydroxybenzotriazole (HOBt) in dimethylformamide (DMF) and added dropwise to the cellulose disks so that the Fmoc group-bound amino acids were bound to the amino groups on the cellulose disks (coupling). Unreacted amino groups were capped with acetic anhydride and washed with DMF. Furthermore, the Fmoc groups were eliminated from the amino groups of the amino acids bound to the amino groups on the cellulose disks by treatment with piperidine and washing with DMF. The amino acids bound to the amino groups on the cellulose disks were repetitively subjected to the coupling, the capping, and the Fmoc group elimination described above to elongate the amino terminus for peptide synthesis.
The peptides-bound cellulose disks of interest obtained above in the subsection titled “(1) Synthesis of peptide” were transferred to 96-well plates and treated with a side chain deprotection mixed solution of trifluoroacetic acid (TFA), dichloromethane, triisopropylsilane (TIPS), and water for deprotection of amino acid side chains. Then, the deprotected cellulose-bound peptides were dissolved in a mixed solution of TFA, […] acid (TFMSA), TIPS, and water and precipitated in […] methyl ether (TBME), and the precipitate was resuspended in dimethyl sulfoxide (DMSO) and mixed with a mixed solution of NaCl, sodium citrate, and water to obtain a peptide solution for slide spotting.
The peptide solution for slide spotting obtained above in the subsection titled “(2) Dissolution of amino-modified cellulose disk” was spotted onto Intavis CelluSpots™ slides using Intavis Slide Spotting Robot, and the slides were dried to prepare peptide arrays.
The presence or absence of binding, to each peptide fragment, of an IgE antibody present in the serum of a wheat-allergic patient was measured through antigen-antibody reaction using the peptide arrays. […]

Binding of patient-specific IgE antibodies to 15-residue peptide, confirmed to bind:
SEQ ID NO: 899: common 15-residue epitope sequence of polypeptide (E12) (LGQQQQQFPGQQQPF; REGION 1..15: note = epitope)
SEQ ID NO: 1608: common 15-residue epitope sequence of polypeptide (E26) (VGYNPDKVPFVPISG; REGION 1..15: note = epitope)
SEQ ID NO: 1836: common 15-residue epitope sequence of polypeptide (E30) (VIAEYTVRTLQRTVP; REGION 1..15: note = epitope)
SEQ ID NO: 1895: common 15-residue epitope sequence of polypeptide (E31) (QVPLVQQQQFPGQQQ; REGION 1..15: note = epitope)
SEQ ID NO: 640: common 15-residue epitope sequence of polypeptide (E9) (QVPLVQQQQFPGQQQ; REGION 1..15: note = epitope)
SEQ ID NO: 1297: common 15-residue epitope sequence of polypeptide (E20) (SINVENVEDNRRALR; REGION 1..15: note = epitope)
SEQ ID NO: 1089: common 15-residue epitope sequence of polypeptide (E15) (STKGGKPFVDILKAG; REGION 1..15: note = epitope)
SEQ ID NO: 1257: common 15-residue epitope sequence of polypeptide (E19) (SSLVSMILPRSDCKV; REGION 1..15: note = epitope)
SEQ ID NO: 1685: common 15-residue epitope sequence of polypeptide (E27) (PAKEAANFTSQVIIM; REGION 1..15: note = epitope)
SEQ ID NO: 1508: common 15-residue epitope sequence of polypeptide (E23) (QVPLVQQQQFLGQQQ; REGION 1..15: note = epitope)
SEQ ID NO: 1367: common 15-residue epitope sequence of polypeptide (E21) (KPWQQQPLPPQQQPP; REGION 1..15: note = epitope)
SEQ ID NO: 2701: common 15-residue epitope sequence of polypeptide (E47) (VYKIGGIGTVPVGRV; REGION 1..15: note = epitope)
SEQ ID NO: 346: common 15-residue epitope sequence of polypeptide (E5) (PQQSFPQQQRPFIQP; REGION 1..15: note = epitope)
SEQ ID NO: 131: common 15-residue epitope sequence of polypeptide (E2) (PPFPQQHQQFPQQQI; REGION 1..15: note = epitope)
SEQ ID NO: 2774: common 15-residue epitope sequence of polypeptide (E48) (FLKNGDAGIVKMIPT; REGION 1..15: note = epitope)
SEQ ID NO: 2154: common 15-residue epitope sequence of polypeptide (E36) (YSQPQQPISQQQQQQ; REGION 1..15: note = epitope)
SEQ ID NO: 776: common 15-residue epitope sequence of polypeptide (E11) (QPYPQPQPFPSQQPY; REGION 1..15: note = epitope)
SEQ ID NO: 1753: common 15-residue epitope sequence of polypeptide (E28) (VKEVSSYLKKVGYNP; REGION 1..15: note = epitope)
SEQ ID NO: 1010: common 15-residue epitope sequence of polypeptide (E14) (WLQQQLVPQLQQPLS; REGION 1..15: note = epitope)
SEQ ID NO: 2830: common 15-residue epitope sequence of polypeptide (E50) (YIVVEGRDGYFEMAC; REGION 1..15: note = epitope)
SEQ ID NO: 281: common 15-residue epitope sequence of polypeptide (E4) (QQPQQPFPQQQQPLI; REGION 1..15: note = epitope)
SEQ ID NO: 414: common 15-residue epitope sequence of polypeptide (E6) (KWRAVLKIGATEPSQ; REGION 1..15: note = epitope)
SEQ ID NO: 1209: common 15-residue epitope sequence of polypeptide (E18) (PIQQQPQPFPQQPPC; REGION 1..15: note = epitope)
SEQ ID NO: 2491: common 15-residue epitope sequence of polypeptide (E42) (SSQVSFQPSQLNPQA; REGION 1..15: note = epitope)
SEQ ID NO: 2809: common 15-residue epitope sequence of polypeptide (E49) (VYSANTHRSKWFRVV; REGION 1..15: note = epitope)
SEQ ID NO: 2613: common 15-residue epitope sequence of polypeptide (E44) (SAKPLLASLSKRVLT; REGION 1..15: note = epitope)
SEQ ID NO: 2265: common 15-residue epitope sequence of polypeptide (E38) (LGGIDKRVIERFEKE; REGION 1..15: note = epitope)
SEQ ID NO: 2027: common 15-residue epitope sequence of polypeptide (E34) (TPGALQYLSGVILFE; REGION 1..15: note = epitope)
SEQ ID NO: 2545: common 15-residue epitope sequence of polypeptide (E43) (LQQSTYQLVQQLCCQ; REGION 1..15: note = epitope)
SEQ ID NO: 706: common 15-residue epitope sequence of polypeptide (E10) (VILFEETLYQSTKGG; REGION 1..15: note = epitope)
